Drawing on ChEMBL document CHEMBL3507680, “University of Dundee, Gates Library screen for HepG2 cell viability”, this text covers cytotoxicity for 101 compounds.

The data set in a line: Human HepG2 cell viability assay in 384 well format. In kind it is toxicity, cell-based. Further details: dose 125 nL, time 70.5 hour; concentration not given beside the values. The following applies: HepG2 cells, read-out: Inhibition.
In the case of `CC(C)(C)NC(=O)c1ccc(COCC(F)(F)F)o1`, the cytotoxicity at 70.5 h is -4.89%.
With `CCn1nnc(NCc2ccccc2OCc2ccc(Cl)cc2)n1`, the cytotoxicity at 70.5 h was -7.27%.
Next, `CC(=O)Nc1ccccc1Sc1nc(Br)nn1C`: -4.88%.
As for `CC(=O)Nc1c(C)noc1/C=C\c1ccc(C)c(S(=O)(=O)NC2CC2)c1`, the figure is -6.84%; as for `CN1C(=N)NC(=O)/C1=C\c1ccc(-c2ccc(F)cc2)o1`, 28.8%.
For `CCCOC(=O)c1ccc(-c2ccc(/C=C3\C(=O)NC(=N)N3C)o2)cc1`, the cytotoxicity at 70.5 h is 18.1%.
Regarding `COCCNC(=O)c1ccc2c(=O)n3c(nc2c1)CCCCC3`, the cytotoxicity at 70.5 h was -22.9%.
Regarding `Cc1ccc(Nc2cc(N3CCN(S(C)(=O)=O)CC3)nc(C)n2)cc1`, the cytotoxicity at 70.5 h was -17.3%.
Next, `COCCCNC(=O)Cn1c(C)cc(=O)n2nc(-c3cccs3)nc12`: -7.89%.
`COc1cccc(N2CCN(C(=O)c3noc4c3CCCC4)CC2)c1`: the cytotoxicity at 70.5 h was -20.2%.
For `O=C(NCc1ccco1)c1cccc(C(=O)NCc2ccco2)n1`, the cytotoxicity at 70.5 h was -20.3%.
For the compound `Cc1ccc(S(=O)(=O)n2ccn(C(=O)CC(C)C)c2=O)cc1`, the cytotoxicity at 70.5 h was -19.3%.
With `CCC(CC)C(=O)n1ccn(S(=O)(=O)c2ccc(C)cc2)c1=O`, the cytotoxicity at 70.5 h came out at 15.1%.
Next, `CCc1nc(-c2ccc(C(=O)N3CCC4(CC3)OCCO4)cc2)no1`: -21.2%; `CCc1nc(-c2ccc(NC(=O)N3CCCC3)cc2)no1`: -19.3%.
In the case of `CCc1nc(-c2ccc(NC(=O)N3CCOCC3)cc2)no1`, the cytotoxicity at 70.5 h was -3.86%.
In the case of `O=C(Nc1ccc(Br)cc1F)c1cc(CN2CCOCC2)on1`, the cytotoxicity at 70.5 h was -5.21%.
Regarding `CCOC(=O)CNC(=O)NCc1cccn1Cc1ccccc1`, the cytotoxicity at 70.5 h is -13.4%.
Regarding `CCOC(=O)CNC(=O)NCc1cccn1Cc1cccc(C)c1`, the cytotoxicity at 70.5 h was -18.9%.
As for `COCCCNC(=O)NCc1cccn1Cc1ccccc1C`, the figure is -20.3%; as for `CCCN1CCN(C(=O)CCn2cccc2)CC1`, -5.28%; as for `O=C(NCCCc1ccco1)c1cnc(N2CCOCC2)nc1`, -18.7%.
In the case of `CC(=O)N1N=C(COc2ccc(Cl)cc2)OC1c1ccccc1` (stereo unspecified), the cytotoxicity at 70.5 h was found to be 17%.
Take `COCCn1c(-c2cccc(OC)c2)cnc1NC(=O)NC1CCCC1`: the cytotoxicity at 70.5 h was 6.84%.
Turning to `COCCn1c(-c2cccc(OC)c2)cnc1NC(=O)NCCC(C)C`, the cytotoxicity at 70.5 h is -12.5%.
Regarding `CCOc1ccc(C(=O)Nc2c(C)nc3ccc(Cl)cn3c2=O)cc1`, the cytotoxicity at 70.5 h was -3.81%.
As to `COc1ccc(C(=O)Nc2c(C)nc3cccc(C)n3c2=O)cc1`, the cytotoxicity at 70.5 h was -17.1%.
`CN1CC=C(c2noc(CCC(=O)N3CCCC3)n2)CC1`: the cytotoxicity at 70.5 h was found to be 7.74%.
On to `CN1CC=C(c2noc(CCC(=O)N3CCOCC3)n2)CC1`, for which the cytotoxicity at 70.5 h was -5.23%.
As to `Cc1noc2ncnc(N(C)Cc3ccco3)c12`, the cytotoxicity at 70.5 h was -16.7%.
As for `COc1cnc(CSc2nnc(C)s2)cc1OCC(=O)NC1CCCC1`, the cytotoxicity at 70.5 h was determined as 2.36%.
`Cc1ccc2oc(SCC(=O)NC(C)(C)C)nc2n1`: the cytotoxicity at 70.5 h is -6.39%.
Turning to `CC(c1ccncc1)N(CCN(C)C)C(=O)Nc1ccc(Cl)cc1` (stereo unspecified), the cytotoxicity at 70.5 h was -14.7%.
Next, `Cc1n[nH]c2c1C(c1ccc(Cl)cc1)SCC(=O)N2` (stereo unspecified): 10.6%; `Cc1n[nH]c2c1C(c1ccc(Br)cc1)SCC(=O)N2` (stereo unspecified): -8.1%; `Cc1n[nH]c2c1C(c1ccc(O)cc1)SCC(=O)N2` (stereo unspecified): -11%.
As for `COc1ccc(CN2CCCC2c2cccc(F)c2)c(OC)c1OC` (stereo unspecified), the figure is -6.93%; as for `COc1cc(CN2CCCC2c2cccc(F)c2)cc(OC)c1OC` (stereo unspecified), -11.4%.
For the compound `COc1ccc(NC(=O)N2CCCC2c2ccco2)c(OC)c1` (stereo unspecified), the cytotoxicity at 70.5 h was 10.8%.
As to `COc1ccc(Cl)cc1NCc1nc2[nH]c(C)c(C)c(=O)n2n1`, the cytotoxicity at 70.5 h is -4.46%.
Next, `Cc1[nH]c2nc(CNc3cccc(Cl)c3)nn2c(=O)c1C`: -11.7%.
For the compound `O=C(NC(c1ccccc1)c1cccnc1)C1CC1` (stereo unspecified), the cytotoxicity at 70.5 h is -6.82%.
As for `O=C(NC(c1ccc(Cl)cc1)c1cccnc1)C1CC1` (stereo unspecified), the cytotoxicity at 70.5 h was -7.72%.
For the compound `CCOc1ccccc1CNS(=O)(=O)c1ccc2c(c1)CCCC(=O)N2`, the cytotoxicity at 70.5 h is -9.4%.
Next, `CCCc1nnc(SCc2cc(=O)n3c4c(sc3n2)CCCC4)[nH]1`: -6.9%; `Cc1ccc(NC(=O)c2cnc(N3CCN(C)CC3)nc2C)cc1C`: -4.49%.
`Cc1cc(C)cc(NC(=O)c2cnc(N3CCN(C)CC3)nc2C)c1`: the cytotoxicity at 70.5 h was -0.093%.
On to `CCC1CN(CC(=O)NCCN2CCCCC2)c2ccccc2S1` (stereo unspecified), for which the cytotoxicity at 70.5 h was -3.08%.
For `O=C1COc2cc(S(=O)(=O)NCCC3=CCCCC3)c(Cl)cc2N1`, the cytotoxicity at 70.5 h was found to be 14.7%.
`Cc1nc(-c2ccc(S(=O)(=O)N3CCCCC3)cc2)co1`: the cytotoxicity at 70.5 h was -8.94%.
For `COc1cccc(CNC(=O)Cn2ccc3c(C)nn(C)c3c2=O)c1`, the cytotoxicity at 70.5 h was -5.8%.
For `Cc1nn(C)c2c(=O)n(CC(=O)NCCC3=CCCCC3)ccc12`, the cytotoxicity at 70.5 h is -1.87%.
Turning to `CCOc1ccccc1CNC(=O)Cn1ccc2c(C)nn(C)c2c1=O`, the cytotoxicity at 70.5 h is -5.58%.
Next, `O=C(Cn1ccc2sccc2c1=O)NCCCc1ccccc1`: -9.43%.
Regarding `O=C(Cn1ccc2sccc2c1=O)NCCC1=CCCCC1`, the cytotoxicity at 70.5 h was -8.78%.
On to `CCOC(=O)Cn1c(=O)c(OCC)nc2cnccc21`, for which the cytotoxicity at 70.5 h was -3.59%.
As to `CC1=C(c2ccc(C)cc2)S(=O)(=O)N=C1N1CCc2ccccc21`, the cytotoxicity at 70.5 h is -5.39%.
For the compound `CCOc1nc2cnccc2n(CC(=O)NCc2ccco2)c1=O`, the cytotoxicity at 70.5 h was -10.1%.
On to `CC(=O)N1N=C(COc2ccc(C)cc2)OC1c1ccc(N(C)C)cc1` (stereo unspecified), for which the cytotoxicity at 70.5 h was -6.08%.
With `COc1ccc(CN2CCCCCC2c2cccs2)c(O)c1` (stereo unspecified), the cytotoxicity at 70.5 h was -7.17%.
Consider `Cc1nn(C)cc1CN1CCCCCC1c1ccc(Cl)cc1` (stereo unspecified), for which the cytotoxicity at 70.5 h came to 6.75%.
On to `COc1cc(CN2CCCCCC2c2cccs2)cc(OC)c1O` (stereo unspecified), for which the cytotoxicity at 70.5 h is -2.15%.
For the compound `COc1ccc(CN2CCCCCC2c2cccs2)c(OC)c1` (stereo unspecified), the cytotoxicity at 70.5 h was -8.21%.
As for `COc1cccc(CN2CCCCCC2c2sccc2C)c1O` (stereo unspecified), the cytotoxicity at 70.5 h turned out to be 1.85%.
Regarding `CCCNC(=O)Nc1ccc2c(c1)N(S(=O)(=O)CC)CC2`, the cytotoxicity at 70.5 h was -6.9%.
As for `CCS(=O)(=O)N1CCc2ccc(NC(=O)Nc3cccc(C)c3)cc21`, the figure is 17.9%.
Take `CCS(=O)(=O)N1CCc2ccc(NC(=O)NCc3ccccc3)cc21`: the cytotoxicity at 70.5 h is -3.62%.
Next, `CCC(C)NC(=O)Cn1ccc2c(C)nn(CC)c2c1=O` (stereo unspecified): 30.5%; `CCn1nc(C)c2ccn(CC(=O)NC3CC3)c(=O)c21`: -9.78%; `COc1cc(N2C[C@H]3CN(CC(=O)N(C)C)C(=O)[C@H]3C2)ncn1`: 28.2%.
For the compound `CCN1CCC2(CC1)CN(CCO)c1ccccc12`, the cytotoxicity at 70.5 h turned out to be 21.2%.
Consider `O=C(Cc1cccs1)NCC1COCc2c(-c3ccoc3)nnn2C1` (stereo unspecified), for which the cytotoxicity at 70.5 h was -9.17%.
Take `CC1c2ncc(COCC3CCCC3)n2CCN1S(=O)(=O)N(C)C` (stereo unspecified): the cytotoxicity at 70.5 h was determined as 0.773%.
Take `O=c1ccc2c(n1Cc1cccnc1)CCC(NCc1cccnc1)C2` (stereo unspecified): the cytotoxicity at 70.5 h was -0.912%.
Consider `CS(=O)(=O)N1C[C@H](C(=O)Nc2cnccn2)C[C@H]2OCC[C@H]21`, for which the cytotoxicity at 70.5 h is 24.9%.
On to `c1cnn(CC2CCCN2Cc2nc(C3CC3)no2)c1` (stereo unspecified), for which the cytotoxicity at 70.5 h was -8.97%.
In the case of `CC(C)(C)c1nc(CN2CCCC2Cn2cncn2)no1` (stereo unspecified), the cytotoxicity at 70.5 h is -5.99%.
`CCOc1ccccc1OC1CCN(Cc2ccn(C)c(=O)c2)CC1`: the cytotoxicity at 70.5 h was found to be 20.3%.
For `Fc1ccc(Oc2ccc(CNCC3CNc4ccnn4C3)cn2)cc1` (stereo unspecified), the cytotoxicity at 70.5 h is -12.4%.
For `CCc1csc(C2CCCN(C(=O)c3cnc[nH]3)C2)n1` (stereo unspecified), the cytotoxicity at 70.5 h is -7.63%.
Turning to `COc1cc(CNC(C)Cn2cccn2)cc(OC)c1` (stereo unspecified), the cytotoxicity at 70.5 h was -9.25%.
On to `c1ccc(Cc2noc(CN3CCCCC3Cn3cccn3)n2)cc1` (stereo unspecified), for which the cytotoxicity at 70.5 h is -9.87%.
Next, `CC1CCCN(CCNC(=O)c2ccn(-c3ccc(F)cc3)n2)C1` (stereo unspecified): -0.389%; `Cc1cccc(C)c1OC1CCN(Cc2ccn(C)c(=O)c2)CC1`: -5.76%; `COc1ccc(CNCC2CNc3ccnn3C2)cn1` (stereo unspecified): -3.27%.
Consider `CC(C)C(NC(=O)NCCNc1cnccn1)c1cccs1` (stereo unspecified), for which the cytotoxicity at 70.5 h is -11.6%.
Regarding `Cc1nc(-c2ccccc2)sc1CNC1CCc2ncnn2C1` (stereo unspecified), the cytotoxicity at 70.5 h was -10.6%.
Turning to `Fc1ccc(-c2nc(CNC3CCc4ncnn4C3)co2)cc1` (stereo unspecified), the cytotoxicity at 70.5 h is -4.87%.
Consider `Cc1cc(CNC(=O)NCc2cccs2)no1`, for which the cytotoxicity at 70.5 h is -5.03%.
Regarding `CCc1csc(C2CCCN(C(=O)c3cc(C4CC4)[nH]n3)C2)n1` (stereo unspecified), the cytotoxicity at 70.5 h was -7.48%.
Take `CC(C)c1nc(CN2CCCCC2Cn2cncn2)cs1` (stereo unspecified): the cytotoxicity at 70.5 h amounted to 16.2%.
As for `CN(Cc1cscn1)C1CCCN(c2cccnn2)C1` (stereo unspecified), the figure is 18%; as for `CCc1nc(CN(C)C2CCCN(c3cccnn3)C2)no1` (stereo unspecified), 16.7%; as for `CCc1nnc(CN2CCCCC2Cn2nc(C)nc2C)o1` (stereo unspecified), -5.83%.
Next, `CC(C)C(Sc1nnnn1C1CC1)C(=O)NCc1ccccc1` (stereo unspecified): -7.04%; `Cc1ccc(-c2noc(CN3CCC(N4CCNC4=O)CC3)n2)cc1`: 20.8%; `Cc1cc(C)n(CC2CN(CC(=O)Nc3ccncc3)CCO2)n1` (stereo unspecified): -2.52%.
With `Cc1cc(C)n(CC2CN(CC(=O)NC3CCOCC3)CCO2)n1` (stereo unspecified), the cytotoxicity at 70.5 h was 15.9%.
Take `CC(C)OCCCN(CC(=O)N1CCNCC1)C(=O)c1cccc(Cl)c1`: the cytotoxicity at 70.5 h is -18.5%.
Turning to `O=C([C@@H]1COC[C@H]2CN(CC3CC3)C[C@H]21)N1CCC(F)CC1`, the cytotoxicity at 70.5 h worked out at 32.5%.
Take `CCN1CCCC12CCN(Cc1cccnc1OC)CC2`: the cytotoxicity at 70.5 h is -4.58%.
